Legend:
Assay type in all cases: cell-based, human
[1] = tested on: HT-29 GFP+ cells; assay: Single-color GFP+ immune cell co-culture, HT-29; settings: 48 hours
Description: 50,000 HT-29 or HCT 116 cells were seeded in a 12-well tissue culture plate and allowed to adhere overnight. They were then transduced with lentivirus containing the plasmid pLenti_CMV_GFP_Hygro [pLenti CMV GFP Hygro (656-4) was a gift from Eric Campeau & Paul Kaufman (Addgene viral prep #17446-LV; RRID: Addgene_17446)] at a multiplicity of infection of 10 with 8 μg/mL polybrene (hexadimethrine bromide [Cat #107689, Sigma Aldrich, St. Louis, MO, USA) for 24 hours before washing with PBS and replacing with fresh medium (49). The cells were then sorted for GFP-positivity using a BD FACSAria™ III Cell Sorter (RRID: SCR_016695).
5000 HT-29 GFP+ or HCT 116 GFP+ cells were plated per well in a clear-bottom, black-walled 96-well tissue culture plate and were allowed to adhere overnight. Cells were subsequently treated with DMSO, 5 μM elraglusib, and/or 5000 TALL-104 or NK-92 cells (for an effector-to-tumor ratio of 1:1) for 48 hours. Nine images were taken per well at 10× magnification using a Molecular Devices ImageXpress® Confocal HT.ai High-Content Imaging System and quantified for the number of GFP+ objects using the MetaXpress (RRID: SCR_016654) software (Molecular Devices, San Jose, CA, USA). 40× Images were also taken at 24 hours for representative images of cellular morphology changes. Statistical analysis was done using GraphPad Prism 9 (RRID: SCR_002798).

[2] = tested on: TALL-104 cells; assay: Cytokine profiling of cell culture supernatant (Luminex 200), TALL-104
Description: Cells were plated at 3.5×10^4 cells in a 48-well plate (Thermo Fisher Scientific, Waltham, MA, USA) in complete medium and incubated at 37° C. with 5% CO2. At 24 hours after plating, almost all the tumor cells were adherent to the bottom of the flask and the complete medium was replaced with the drug-containing medium. […] On the day of analysis, samples were thawed and centrifuged to remove cellular debris.
(§1) Human cell line culture supernatants were analyzed using an R&D systems Human Premixed Multi-Analyte Kit (R&D Systems, Inc., Minneapolis, MN, USA) and a Luminex 200 (RRID: SCR_018025) Instrument (LX200-XPON-RUO, Luminex Corporation, Austin, TX, USA) according to the manufacturer's instructions. Sample levels of TNF-α, 4-1BB/TNFRSF9/CD137, IL-8/CXCL8, Ferritin, IFN-β, IL-10, CCL2/JE/MCP-1, VEGF, CXCL13/BLC/BCA-1, IFN-γ, CCL20/MIP-3 α, CCL3/MIP-1 α, CCL22/MDC, CCL4/MIP-1 β, Fas Ligand/TNFSF6, IL-17/IL-17A, IL-2, BAFF/BLyS/TNFSF13B, GM-CSF, CXCL5/ENA-78, TRANCE/TNFSF11/RANK L, CXCL9/MIG, G-CSF, IFN-γ R1/CD119, VEGFR3/Flt-4, C-Reactive Protein/CRP, CXCL11/I-TAC, IL-21, CXCL14/BRAK, IL-6, Fas/TNFRSF6/CD95, TRAIL R3/TNFRSF10C, IL-4, CCL5/RANTES, PD-L1/B7-H1, CCL7/MCP-3/MARC, Chitinase 3-like 1, CXCL10/IP-10/CRG-2, IL-1 β/IL-1F2, IL-7, Prolactin, CCL8/MCP-2, TRAIL R2/TNFRSF10B, M-CSF, IL-15, Granzyme B, IFN-α, TREM-1, IL-12/IL-23 p40, TRAIL/TNFSF10, CCL11/Eotaxin, and IL-18/IL-1F4. Quantitative analysis with 6 standards and a minimum of 50 counts per bead region was used with the Luminex to generate analyte values reported as picograms/milliliter (pg/mL). Sample concentrations less than the lower limit of detection for each particular analyte were recoded as the lower limit value divided by ten. Sample concentrations above the upper limit of detection for a particular analyte were recoded as the upper limit of detection.

[3] = tested on: KM12C cells; assay: Microarray gene expression analysis, KM12C
Description: (§2) A total of 0.5×10^6 tumor cells (HCT-116, HT-29, KM12C) were plated in a 6-well plate and allowed to adhere overnight before 24-hour treatment as indicated. 1×10^6 immune cells (NK92, TALL-104) were plated and treated with elraglusib as indicated for 24 hours. RNA was isolated from cell pellets in batches of 6 using an RNeasy Plus Mini Kit (Cat #74134, Qiagen, Hilden, Germany). Acceptable RNA concentration and quality were verified with Nanodrop and Bioanalyzer measurements. GeneChip™ Human Transcriptome Array 2.0 assays were conducted according to manufacturer instructions in two batches using randomized samples to limit batch effects (Cat #902162, Applied Biosystems, Waltham, MA, USA). Applied Biosystems Transcriptomic Analysis Console (TAC) software (RRID: SCR_016519) was used to calculate fold changes in gene expression relative to the untreated control cells. Values were considered statistically significant for p values <0.05.

[4] = tested on: HT-29 cells; assay: Microarray gene expression analysis, HT-29
Description: as §2

[5] = tested on: tumor cells (HCT-116, HT-29); assay: Cytokine profiling of tumor cell culture supernatant (Luminex 200); settings: 48 hours
Description: Cells were plated at 3.5×10^4 cells in a 48-well plate (Thermo Fisher Scientific, Waltham, MA, USA) in complete medium and incubated at 37° C. with 5% CO2. At 24 hours after plating, almost all the tumor cells were adherent to the bottom of the flask and the complete medium was replaced with the drug-containing medium. Subsequently, the culture supernatants were collected after 48 hours of incubation and were frozen at −80° C. until the measurement of cytokines was performed. On the day of analysis, samples were thawed and centrifuged to remove cellular debris.
as §1

[6] = tested on: NK-92 cells; assay: Microarray gene expression analysis, NK-92; settings: IC-50 concentration (1 μM), 24 hours; FC cutoff >1.5, <−1.5, p<0.05
Description: as §2

[7] = IC-50 concentration (1 μM), 24 hours, FC cutoff >1.5, <−1.5, p<0.05

With `Cn1cc(C2=C(c3coc4ccc(F)cc34)C(=O)NC2=O)c2cc3c(cc21)OCO3` [elraglusib, 3-(5-fluorobenzofuran-3-yl)-4-(5-methyl-5H-[1,3]dioxolo[4,5-f]indol-7-yl)-1H-pyrrole-2,5-dione] the tumor cell death ([1]; 5 μM elraglusib and NK-92 vs immune cell only and DMSO only) was “increased tumor cell death”, the tumor cell death ([1]; 5 μM elraglusib and TALL-104 vs drug-only or T cell-only) was “increased tumor cell death” and the “IFN-γ concentration in supernatant” value ([2]; 1 μM, 48 hours) was “increases”. The “TRAIL concentration in supernatant” value ([2]; 1 μM, 48 hours) was “increases”, the “granzyme B concentration in supernatant” value ([2]; 1 μM, 48 hours) was “increases” and the “IFN-γ in cell culture supernatant” value ([2]; 24 hours treatment vs DMSO) was “significant increase in IFN-γ”. For the same compound, the “GZMA (granzyme A) gene expression fold change” value ([3]; 24 hours vs DMSO) was 1.53 FC, the “downregulated genes in VEGFA-VEGFR2 signaling pathway” value ([3]; 24 hours vs DMSO) was 48 and the “differentially expressed genes post-treatment” value (shortened to “differentially”) [3, 7] was 1,032. The “NCR3LG1 (B7-H6) gene expression fold change” value ([4]; 24 hours vs DMSO) was 1.78 FC, the “downregulated genes in VEGFA-VEGFR2 signaling pathway” value ([4]; 24 hours vs DMSO) was 37 and the “differentially” value [4, 7] was 2,307. For the same compound, the CCL5/RANTES secretion ([5]; 1 μM or 5 μM) was “downregulated post-treatment”, the DcR3 secretion ([5]; 1 μM or 5 μM) was “downregulated post-treatment” and the Fas secretion ([5]; 1 μM or 5 μM) was “downregulated post-treatment”. The “soluble PD-L1 (sPD-L1) secretion” value ([5]; 1 μM or 5 μM) was “downregulated post-treatment”, the GDF-15 secretion ([5]; both cell lines, 1 μM and 5 μM) was “decreased secretion” and the GM-CSF secretion ([5]; both cell lines, 1 μM and 5 μM) was “decreased secretion”. For the same compound, the VEGF secretion ([5]; both cell lines, 1 μM and 5 μM) was “decreased secretion” and the “differentially” value [6] was 61.
